Where “and” joins values, the source holds several entries; their conditions need not be identical. Equal entries are not always repeated.
Tested on: histone modifications in MCF-7 cells
Assay: Histone modification analysis by bottom-up LC-MS/MS;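 for Ratio, H2AV 1 19 K11ac*: inhibitor concentrations in µM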;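 for Ratio, H2AX 4 11 K5acK9ac: inhibitor concentrations in µM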;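 for Ratio, H2AX 4 11 K9ac: inhibitor concentrations in µM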;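 for Ratio, H2AZ 1 19 K15ac: inhibitor concentrations in µM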;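 for Ratio, H2AZ 1 19 K4ac: inhibitor concentrations in µM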;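 for Ratio, H2AZ 1 19 K4acK11ac: inhibitor concentrations in µM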
Format: cell-based
Text: In this approach. […] Histones are then extracted from cell pellets and chemically derivatized with propionic anhydride, digested with trypsin, subjected to a second round of propionylation, and analyzed by LC-MS/MS. Measuring the relative intensity of modified versus unmodified forms of individual histone peptides enables simultaneous monitoring of multiple potential biomarkers of MYST inhibition. To minimize false positives, we focused on abundant and reproducible modifications (average stoichiometry of greater than 1% across triplicate samples, standard deviation less than or equal to the average measurement). To account for potential histone modification crosstalk, changes in both acetylated and methylated peptides were evaluated. 38 modified peptides passed this reproducible detection threshold including several established KAT biomarkers[41] including H3K9Ac (KAT2A/B), H3K18Ac (KAT3A/B), H3K14Ac (KAT7), H3K23Ac (KAT6A/B), H4K16Ac (KAT8), and H2A.ZK4/K7Ac (KAT5; Fig. 4B).
Histone modification analysis
MCF-7 cells were cultured at 37 °C under 5% CO2 in EMEM (Quality Biological, 112-016-101) with 0.01 mg/mL human recombinant insulin (Sigma Aldrich, 91077C), 2 mM L-glutamine (Quality Biological, 118- […]
human recombinant insulin.
1119, WM-3835). Following 24 h inhibitor treatment, cells were washed with ice-cold 1× PBS and scraped in 150 µL of Nuclear Isolation Buffer (NIB) containing 0.1% NP-40 for histone extraction using a modified protocol from the Garcia laboratory. 9 Briefly, cell suspensions were incubated on ice for 5 minutes, and […]
nuclei were pelleted by centrifugation (600 rcf, 4°C, 5 min). Pelleted nuclei were washed twice with 150 μL of detergent-free NIB buffer, followed by centrifugation (600 rcf, 4°C, 5 min) to remove all detergent.
Nuclei were then resuspended in 400 μL of 0.4 N H₂SO₄ and rotated at 4°C overnight for acid extraction of histones. The following day, samples were centrifuged (11,000 rcf, 4°C, 10 min) and the histone-containing supernatant was transferred to a fresh tube. Trichloroacetic acid (100% TCA) was added to achieve a final concentration of 20% (v/v), tubes were inverted once to mix, and histone precipitation was performed on ice for at least 3 hours or overnight at 4°C. Precipitated histones were collected by centrifugation (11,000 rcf, 4°C, 10 min) and the supernatant carefully removed, leaving a visible film of histones on the tube wall or bottom. Histone pellets were subjected to sequential washes with 1 mL of ice-cold acidified acetone (0.1% 12 N HCl) followed by 1 mL of 100% ice-cold acetone, with centrifugation (11,000 rcf, 4°C, 5 min) after each wash. Samples were air-dried at room temperature, resuspended in 40 µL of ddH₂O, and protein […]
analysis, 1-2 µg of purified histones were loaded per lane and processed according to the general immunoblotting protocol described in General Materials and Methods.
Analysis of histone modifications by LC-MS/MS
Preparation of histone samples for LC-MS/MS was performed analogously to the procedure for immunoblotting above, with the following modifications. MCF7 cells (4.2 × 106) were seeded in 15 cm dishes and treated with PF-9363 or vehicle. Experiments were performed in triplicate. Following treatment and PBS washing, cells were scraped and collected in 15 mL falcon tubes, pelleted (500 rcf, 4°C, 5 min), resuspended in 1 mL cold PBS, transferred to microcentrifuge tubes, and pelleted again before flash-freezing in liquid nitrogen for storage at -80°C. For extraction, cell pellets (~100 μL) were resuspended in NIB buffer at a 1:10 ratio, and cells were lysed with NIB buffer containing 0.2% NP-40 for 8 minutes on ice. Nuclei were pelleted at 1,000 rcf for 8 minutes and washed three times with 500 μL detergent-free NIB buffer. Histones were extracted using 800 μL of 0.2 M H₂SO₄, and after centrifugation (3,400 rcf, 4°C, 10

[1] = KAT marker KAT5, PF-9363 0.1, Replicates 1-3
[2] = KAT marker KAT5, PF-9363 1, Replicates 1-3
[3] = KAT marker KAT5, PF-9363 10, Replicates 1-3
[4] = KAT marker KAT5, PF-9363 30, Replicates 1-3
[5] = KAT marker KAT5, PF-9363 (0.1 mM)
[6] = KAT marker KAT5, PF-9363 (30 mM)
[7] = KAT marker KAT5, average ratio 0.1 v 30

Structure (SMILES): COc1cccc(OC)c1S(=O)(=O)Nc1noc2cc(Cn3cccn3)cc(OC)c12 [PF-9363]
- Ratio, H2AV_1_19 K11ac* [1]: 0.007595 and 0.00642 and 0.01986
- Ratio, H2AX_4_11 K5acK9ac [1]: 0.05241 and 0.03954 and 0.03977
- Ratio, H2AX_4_11 K9ac [1]: 0.01011 and 0.01143 and 0.00727
- Ratio, H2AZ_1_19 K4ac [1]: 0.0934 and 0.07612 and 0.06178
- Ratio, H2AZ_1_19 K4acK11ac [1]: 0.01166 and 0.008639 and 0.01028
- Ratio, H2AZ_1_19 K15ac [1]: 0.004599 and 0.02439 and 0.01482
- Ratio, H2AV_1_19 K11ac* [2]: 0.004474 and 0.01793 and 0.01146
- Ratio, H2AX_4_11 K5acK9ac [2]: 0.01434 and 0.002712 and 0.0302
- Ratio, H2AX_4_11 K9ac [2]: 0.009767 and 0.01635 and 0.01121
- Ratio, H2AZ_1_19 K4ac [2]: 0.09212 and 0.06375 and 0.07053
- Ratio, H2AZ_1_19 K4acK11ac [2]: 0.007173 and 0.01149 and 0.00767
- Ratio, H2AZ_1_19 K15ac [2]: 0.003136 and 0.01439 and 0.00489
- Ratio, H2AV_1_19 K11ac* [3]: 0.01122 and 0 and 0.008954
- Ratio, H2AX_4_11 K5acK9ac [3]: 0.00945 and 0.08577 and 0.02854
- Ratio, H2AX_4_11 K9ac [3]: 0.01063 and 0.01009 and 0.01309
- Ratio, H2AZ_1_19 K4ac [3]: 0.08614 and 0 and 0.04884
- Ratio, H2AZ_1_19 K4acK11ac [3]: 0.008371 and 0 and 0.01009
- Ratio, H2AZ_1_19 K15ac [3]: 0.007824 and 0 and 0.01105
- Ratio, H2AV_1_19 K11ac* [4]: 0.005769 and 0.002136 and 0.002357
- Ratio, H2AX_4_11 K5acK9ac [4]: 0.04001 and 0.01893 and 0.03445
- Ratio, H2AX_4_11 K9ac [4]: 0.01286 and 0.00924 and 0.00685
- Ratio, H2AZ_1_19 K4ac [4]: 0 and 0.02795 and 0.04699
- Ratio, H2AZ_1_19 K4acK11ac [4]: 0 (2×) and 0.004492
- Ratio, H2AZ_1_19 K15ac [4]: 0 and 0.01504 and 0.003466
- Average ratio, H2AV_1_19 K11ac* [5]: 0.0113
- Average ratio, H2AX_4_11 K5acK9ac [5]: 0.0439
- Average ratio, H2AX_4_11 K9ac [5]: 0.0096
- Average ratio, H2AZ_1_19 K4ac [5]: 0.0771
- Average ratio, H2AZ_1_19 K4acK11ac [5]: 0.0102
- Average ratio, H2AZ_1_19 K15ac [5]: 0.0146
- Average ratio, H2AV_1_19 K11ac* [6]: 0.0034
- Average ratio, H2AX_4_11 K5acK9ac [6]: 0.0311
- Average ratio, H2AX_4_11 K9ac [6]: 0.0097
- Average ratio, H2AZ_1_19 K4ac [6]: 0.0250
- Average ratio, H2AZ_1_19 K4acK11ac [6]: 0.0015
- Average ratio, H2AZ_1_19 K15ac [6]: 0.0062
- Fold-change 0.1 v 30, H2AV_1_19 K11ac* [7]: 3.30
- Fold-change 0.1 v 30, H2AX_4_11 K5acK9ac [7]: 1.41
- Fold-change 0.1 v 30, H2AX_4_11 K9ac [7]: 1.00
- Fold-change 0.1 v 30, H2AZ_1_19 K4ac [7]: 3.09
- Fold-change 0.1 v 30, H2AZ_1_19 K4acK11ac [7]: 6.81
- Fold-change 0.1 v 30, H2AZ_1_19 K15ac [7]: 2.37
- Fold-change 0.1 v 30, H3_18_26 unmod (KQLATKAAR(H3_18_26), PF-9363 0.1 v 30): 0.96
- Average ratio, H3_18_26 unmod (KQLATKAAR(H3_18_26), PF-9363 (0.1 mM)): 0.9434
- Average ratio, H3_18_26 unmod (KQLATKAAR(H3_18_26), PF-9363 (30 mM)): 0.9781
- Ratio, H3_73_83 K79me1 (PF-9363 0.1, Replicates 1-3): 0.07799 and 0.09275 and 0.09546
- Ratio, H3_73_83 K79me2 (PF-9363 0.1, Replicates 1-3): 0.05292 and 0.1051 and 0.06234
- Ratio, H3_73_83 unmod (PF-9363 0.1, Replicates 1-3): 0.8672 and 0.8006 and 0.8413
- Ratio, H4_4_17 K12acK16ac (PF-9363 0.1, Replicates 1-3): 0.009379 and 0.008608 and 0.009722
- Ratio, H4_4_17 unmod (PF-9363 0.1, Replicates 1-3): 0.6357 and 0.6297 and 0.6309
- Ratio, H4_20_23 K20me1 (PF-9363 0.1, Replicates 1-3): 0.02877 and 0.03606 and 0.02758
- Ratio, H4_20_23 unmod (PF-9363 0.1, Replicates 1-3): 0.03039 and 0.02967 and 0.02773
- Fold-change 0.1 v 30, H2A1_12_17 unmod (AKAKTR) (PF-9363 0.1 v 30, peptide H2A1_12_17 unmod, MCF-7): 0.98
- Fold-change 0.1 v 30, H2A3_12_17 K15me1 (AKAKSR) (PF-9363 0.1 v 30, peptide H2A3_12_17 K15me1, MCF-7): 0.96
- Ratio, H2A1_1_11 K5ac (PF-9363 1, Replicates 1-3): 0.9077 and 0.9494 and 0.9116
- Ratio, H2A1_4_11 K5ac (PF-9363 1, Replicates 1-3): 0.06275 and 0.03204 and 0.05607
- Ratio, H2A1_4_11 K9ac (PF-9363 1, Replicates 1-3): 0.0308 and 0.06179 and 0.03113
